Where a name gives a salt, the structure may show the parent alone. Read-outs that look alike come from different tables or passages of the source.
Tests used:
[1] = system: [^3H]imperatorin uptake by TR-BBB cells; format: in vitro ADME, rat; settings: 37°C, 5 min
[2] = sucrose; ref Lee and Kang, 2016; cited from earlier work
[3] = system: [^3H]imperatorin brain uptake; format: in vivo, SD rats; settings: compound 1 mM, ICAP 4 ml/min for 15 sec, pH 7.4
[4] = system: [^3H]imperatorin uptake by TR-BBB cells; experiment: Inhibition of [^3H]imperatorin uptake by TR-BBB cells by selected compounds; format: in vitro ADME, rat; settings: compound 1 mM (L-Carnitine: concentration cell empty), 37°C, 5 min
[5] = system: [^3H]imperatorin brain uptake; experiment: Brain uptake index; format: in vivo, rat; settings: 15 s after injection
hCMEC/D3 cells = settings: ref Kitamura et al., 2014, Sadiq et al., 2011; cited from earlier work
[6] = system: proton coupled antiporter; settings: read-out: in vivo Km; mouse, in situ brain perfusion; ref André et al., 2009; cited from earlier work
TR-BBB cells [7] = experiment: Uptake of radiolabelled substrates in siRNA-transfected TR-BBB cells; format: in vitro ADME, rat; settings: 37°C, 5 min
P-glycoprotein (P-gp) = settings: ref Lili et al. (2013), cited from earlier work
rat brain = experiment: [^3H]imperatorin brain uptake by internal carotid artery perfusion; format: in vivo, SD rats; settings: ICAP
TR-BBB cells [8] = experiment: [^3H]imperatorin uptake by TR-BBB cells; format: in vitro ADME, rat
[9] = [^3H]imperatorin uptake by TR-BBB cells; format: in vitro ADME, rat; settings: rat, pH 7.4
[10] = format: in vivo, SD rats; settings: for AUC: 60 min; for Uptake: 60 min after IV

In the case of “carbonyl cyanide-p-trifluorome-thoxyphenylhydrazone [FCCP]”, the “Relative Uptake (% of Control) of [^3H]imperatorin” value ([1]; 10 μM FCCP, pre-incubated 10 min, pH 7.4) is reported as 56.2 ± 6.3 % of Control.
For `OC[C@H]1O[C@@](CO)(O[C@H]2O[C@H](CO)[C@@H](O)[C@H](O)[C@H]2O)[C@@H](O)[C@@H]1O` [sucrose], the “BBB PS product” value [2] is given as 0.32 ± 0.52 µL/min/g.
For `[N-]=[N+]=[N-].[Na+]` [Sodium azide, sodium azide], the “Relative Uptake (% of Control) of [^3H]imperatorin” value ([1]; sodium azide 0.1%, pretreatment, pH 7.4) was 63.8 ± 2.7 % of Control.
For `C[N+](C)(C)C[C@H](O)CC(=O)[O-]` [L-Carnitine, L-carnitine], the “Brain volume of distribution (VD, % of Control) of [^3H]imperatorin” value [3] was 79.2 ± 5.3 % of Control and the “Relative Uptake (% of Control) of [^3H]imperatorin” value [4] was 86.4 ± 5.6 % of Control.
With `Nc1ccc(C(=O)NCC(=O)O)cc1` [PAH] the “Brain volume of distribution (VD, % of Control) of [^3H]imperatorin” value [3] was 94.4 ± 7.1 % of Control and the “BUI of [^3H]imperatorin in presence of inhibitor” value (“BUI … of inhibitor” below) ([5]; inhibitor 10 mM) was 58.5 ± 6.3%.
In the case of `CN(C)CCOC(c1ccccc1)c1ccccc1` [Diphenhydramine, diphenhydramine], the Km (hCMEC/D3 cells) is listed as 59 µM.
For `[Cl-].[K+]` [Potassium ion (KCl)], the “Relative Uptake (% of Control) of [^3H]imperatorin” value ([1]; sodium replaced by potassium ion (KCl)) was 97.3 ± 2.3 % of Control.
In the case of `COc1cccc(C2(O)CCCCC2CN(C)C)c1` (stereo not shown) [Tramadol, tramadol hydrochloride], the Km (hCMEC/D3 cells) is given as 49 µM.
In the case of `Clc1cccc(Cl)c1N=C1NCCN1` [Clonidine, clonidine hydrochloride], the Km [6] is listed as 600 µM and the “BUI … of inhibitor” value ([5]; inhibitor 10 mM) is listed as 33.9 ± 5.5 %.
With `CC(=O)O[C@H](CC(=O)[O-])C[N+](C)(C)C` [ALC, acetyl-L-carnitine] the “uptake after siRNA transfection” value (TR-BBB cells [7]; Octn2 siRNA) was “significantly inhibited”.
For `C[n+]1ccc(-c2ccccc2)cc1` [MPP+, 1-Methyl-4-phenylpyridinium ion], the “Brain volume of distribution (VD, % of Control) of [^3H]imperatorin” value [3] was 56.3 ± 5.8 % of Control, the “Relative Uptake (% of Control) of [^3H]imperatorin” value [4] was 81.3 ± 3.9 % of Control and the “uptake after siRNA transfection” value (TR-BBB cells [7]; rPmat siRNA) was “significantly inhibited”.
For `CC(C)=CCOc1c2occc2cc2ccc(=O)oc12` [Imperatorin], the IC50 (P-glycoprotein (P-gp); P-gp inhibition) is listed as > 90 µM, the efflux ratio (P-glycoprotein (P-gp); larger than 3.0 = substrate of P-gp) is listed as 0.5 and the “Brain transport compared with control” value (rat brain; carbonate-free HEPES) is listed as “markedly decreased”. The “Vmax of brain influx” value (rat brain; imperatorin 0–1 mM, pH 7.4) was 0.50 µmol/min/g, the “Brain transport compared with control” value (rat brain; mannitol Na+-free buffer) was “significantly increased” and the “Kd (unsaturated component, passive diffusion)” value (rat brain; nonlinear regression) was 3.1e-17 µL/min/g. For the same compound, the Km (rat brain; read-out: apparent Km of brain influx, imperatorin 0–1 mM, pH 7.4) was 180 µM, the “maximum rate of uptake velocity (Vmax)” value (TR-BBB cells [8]; 5 min, pH 7.4) was 2.22 nmol/mg protein/min and the “y-intersection of time course uptake (cell-to-medium ratio)” value (TR-BBB cells [8]; at 30 sec, Fig. 4) was “approximately 140 ul/mg protein”. For the same compound, the “[^3H]Imperatorin uptake compared to control” value (TR-BBB cells [8]; extracellular pH 6.4) was “significantly reduced”, the “[^3H]Imperatorin uptake compared to control” value (TR-BBB cells [8]; extracellular pH 8.4) was “markedly increased” and the “[^3H]Imperatorin uptake compared to control” value (TR-BBB cells [8]; intracellular acidification by pretreatment with NH4Cl) was “increased”. The “[^3H]Imperatorin uptake compared to control” value (TR-BBB cells [8]; pHi alkalized by 30 mM NH4Cl) was “reduced”, the Km (TR-BBB cells [8]; read-out: Michaelis-Menten constant (Km) of uptake, 5 min, unlabeled imperatorin 0.01∼1 mM, pH 7.4) was 59 µM and the microsomal CLint at 5 min [9] was 17 µL/min/mg. The “uptake after siRNA transfection” value (TR-BBB cells [7]; rPmat, rOct 2, rOctn2 or rOctn1 siRNA) was “not significantly affected”, the “BUI … of inhibitor” value ([5]; inhibitor 1 mM) was 24.9 ± 3.4 % and the “Brain VD relative to [^14C]sucrose” value ([10]; IV injection, rat brain) was “about 6 fold”. The “BBB PS product relative to sucrose” value ([10]; IV injection, sucrose value from Lee and Kang, 2016) was 12 fold, the “BBB PS product relative to sucrose” value ([10]; IV injection, sucrose value from Wu and Pardridge, 1999) was 20 fold and the AUCss ([10]; SD rats, single IV, plasma) was 38.2 ± 1.5 % ID min/mL. It also gave an AUC ([10]; SD rats, single IV, plasma) of 22.1 ± 0.8 % ID min/mL, an AUC ([10]; SD rats, single IV, plasma, listed as [^3H]imperatorin) of 22 ± 1 % ID min/mL and an Uptake ([10]; brain, SD rats) of 0.086 ± 0.008 %ID/g. For the same compound, the Uptake ([10]; heart, SD rats) was 1.62 ± 0.10 %ID/g, the Uptake ([10]; kidney, SD rats) was 3.70 ± 0.33 %ID/g and the Uptake ([10]; liver, SD rats) was 1.21 ± 0.08 %ID/g. For the same compound, the Uptake ([10]; lung, SD rats) was 1.68 ± 0.03 %ID/g.
In the case of `CN1CCC[C@H]1c1cccnc1` [Nicotine, nicotine], the “BUI … of inhibitor” value ([5]; inhibitor 10 mM) is reported as 27.6 ± 0.0 %.
For `CNC[C@H](O)[C@@H](O)[C@H](O)[C@H](O)CO` [N-Methylglucamine (NMG), N-Methylglucamine], the “Relative Uptake (% of Control) of [^3H]imperatorin” value ([1]; Na+ replacement by N-methylglucamine) was 97.4 ± 6.6 % of Control.
For `CC[N+](CC)(CC)CC` [TEA], the “Brain volume of distribution (VD, % of Control) of [^3H]imperatorin” value [3] was 103 ± 5 % of Control, the “Relative Uptake (% of Control) of [^3H]imperatorin” value [4] was 107 ± 10 % of Control and the “BUI … of inhibitor” value ([5]; inhibitor 10 mM) was 48.6 ± 4.5%.

Reference: article PMC5499624 (Biomolecules & Therapeutics, 2017)
